The source of these data is patent USRE40086E1, “Method for treating bacterial infection with novel 7-substituted-9-substituted amino 6-demethyl-6-deoxytetracyclines” (Wyeth Holdings Corporation, priority 1991, dated 2008).

Assay in all cases: MIC, agar dilution
Holding throughout (type): cell-based

Assay [1] has as its system S. aureus IVES 2943 (meth. resistant). The conditions noted are these: S. aureus IVES 2943 (meth. resistant).
In a further assay the test system is E. coli UBMS 89-1 (tetM). The conditions noted are these: E. coli UBMS 89-1 (tetM).
Assay [2] has as its system S. aureus UBMS 90-2 (tetM). The conditions noted are these: S. aureus UBMS 90-2 (tetM).
Assay [3] concerns S. aureus UBMS 90-3 (Sensitive). To be noted: S. aureus UBMS 90-3 (Sensitive).
A further assay relates to E. faecalis ATCC 29212. The conditions noted are these: E. faecalis ATCC 29212.
Assay [4] has as its system S. aureus ATCC 29213 (Sensitive). The conditions noted are these: S. aureus ATCC 29213 (Sensitive).
In assay [5] the test system is E. coli UBMS 88-2 (Sensitive). To be noted: E. coli UBMS 88-2 (Sensitive).
The test system of assay [6] is S. aureus UBMS 88-4 (Sensitive). The conditions noted are these: S. aureus UBMS 88-4 (Sensitive).
In assay [7] the test system is S. aureus Smith (Sensitive). The conditions noted are these: S. aureus Smith (Sensitive).
Assay [8] relates to S. aureus UBMS 88-5 (tetM). To be noted: S. aureus UBMS 88-5 (tetM).
In assay [9] the test system is E. coli UBMS 89-2 (Sensitive). To be noted: E. coli UBMS 89-2 (Sensitive).
Another assay deals with E. faecalis 12201. The conditions noted are these: E. faecalis 12201.
The test system of assay [10] is S. aureus UBMS 88-7 (tetK). The conditions noted are these: S. aureus UBMS 88-7 (tetK).
A further assay deals with E. coli ATCC 25922. The conditions noted are these: E. coli ATCC 25922.
The test system of assay [11] is S. aureus IVES 1983 (meth. resistant). To be noted: S. aureus IVES 1983 (meth. resistant).
The test system of another assay is E. coli UBMS 88-1 (tetB). To be noted: E. coli UBMS 88-1 (tetB).
Assay [12] deals with S. haemolyticus AVAH 88-3. To be noted: S. haemolyticus AVAH 88-3.
Assay [13] has as its system S. aureus UBMS 90-1 (tetM). To be noted: S. aureus UBMS 90-1 (tetM).

The MIC is the least concentration at which growth counts as inhibited. A low value points to a more susceptible organism.

≈ marks a conversion by molar mass, not a printed value.

On to `CN(C)c1ccc(C(=O)Nc2cc(N(C)C)c3c(c2O)C(=O)C2=C(O)[C@]4(O)C(=O)C(C(N)=O)=C(O)[C@@H](N(C)C)[C@@H]4C[C@@H]2C3)cc1` [W, 7-(Dimethylamino)-9-[[(4-dimethylamino)benzoyl)amino)-6-demethyl-6-deoxytetracycline], for which the MIC in assay [1] was 8 µg/mL (≈ 12.9 µM); in the assay on E. coli UBMS 89-1 (tetM), greater than 32 µg/mL; in assay [2], 8 µg/mL (≈ 12.9 µM); in [3], 8 µg/mL (≈ 12.9 µM); in the assay on E. faecalis ATCC 29212, 8 µg/mL (≈ 12.9 µM); in assay [4] it was 2 µg/mL (≈ 3.23 µM). In addition, the MIC in assay [5] is greater than 32 µg/mL; in assay [6], 8 µg/mL (≈ 12.9 µM); in [7], 4 µg/mL (≈ 6.45 µM); in [8], 32 µg/mL (≈ 51.6 µM); in assay [9], greater than 32 µg/mL; in the assay on E. faecalis 12201, 16 µg/mL (≈ 25.8 µM). In addition, the MIC in assay [10] is 16 µg/mL (≈ 25.8 µM); against E. coli ATCC 25922 it was greater than 32 µg/mL; in [11], 8 µg/mL (≈ 12.9 µM); in the assay on E. coli UBMS 88-1 (tetB), greater than 32 µg/mL; in assay [12] it was 16 µg/mL (≈ 25.8 µM); in assay [13] it was 16 µg/mL (≈ 25.8 µM).
For the compound `CN(C)c1cc(NC(=O)c2ccc(N)cc2)c(O)c2c1CC1CC3C(N(C)C)C(O)=C(C(N)=O)C(=O)C3(O)C(O)=C1C2=O.O=S(=O)(O)O` (stereo not drawn) [X, 9-[(4-Aminobenzoyl)amino)-7-(dimethylamino)-6-demethyl-6-deoxytetracycline sulfate], the MIC in [1] was greater than 32 µg/mL; against E. coli UBMS 89-1 (tetM), greater than 32 µg/mL; in [2], 8 µg/mL; in assay [3], 1 µg/mL; against E. faecalis ATCC 29212 it was 8 µg/mL; in assay [4] it was 0.5 µg/mL. The MIC was greater than 32 µg/mL in assay [5]; 1 µg/mL in [6]; 1 µg/mL in assay [7]; 8 µg/mL in assay [8]; greater than 32 µg/mL in [9]; 32 µg/mL in the assay on E. faecalis 12201. The minimal inhibitory concentration (MIC) in [10] is 8 µg/mL; against E. coli ATCC 25922 it was greater than 32 µg/mL; in assay [11] it was greater than 32 µg/mL; with E. coli UBMS 88-1 (tetB), greater than 32 µg/mL; in assay [12], 8 µg/mL; in assay [13] it was 16 µg/mL.
In the case of `CN(C)c1cc(NC(=O)c2ccco2)c(O)c2c1CC1CC3C(N(C)C)C(O)=C(C(N)=O)C(=O)C3(O)C(O)=C1C2=O` (stereo not drawn) [Y, 7-(Dimethylamino)-9-((2-furanylcarbonyl)amino)-6-demethyl-6-deoxytetracycline], the MIC in [1] is greater than 32 µg/mL; with E. coli UBMS 89-1 (tetM), greater than 32 µg/mL; in assay [2] it was 8 µg/mL (≈ 14.1 µM); in assay [3], 2 µg/mL (≈ 3.53 µM); in the assay with E. faecalis ATCC 29212, 8 µg/mL (≈ 14.1 µM); in assay [4], 0.5 µg/mL (≈ 0.883 µM). For the same compound, the MIC in assay [5] was greater than 32 µg/mL; in assay [6], 4 µg/mL (≈ 7.06 µM); in [7], 2 µg/mL (≈ 3.53 µM); in assay [8], 16 µg/mL (≈ 28.2 µM); in assay [9], greater than 32 µg/mL; against E. faecalis 12201 it was 32 µg/mL (≈ 56.5 µM). Moreover, the MIC in assay [10] is greater than 32 µg/mL; with E. coli ATCC 25922, greater than 32 µg/mL; in [11], greater than 32 µg/mL; against E. coli UBMS 88-1 (tetB) it was greater than 32 µg/mL; in assay [12] it was greater than 32 µg/mL; in assay [13], 32 µg/mL (≈ 56.5 µM).
Turning to `CN(C)c1cc(NC(=O)c2cccs2)c(O)c2c1CC1CC3C(N(C)C)C(O)=C(C(N)=O)C(=O)C3(O)C(O)=C1C2=O` (stereo not drawn) [Z, 7-(Dimethylamino)-9-[(2-thienylcarbonyl)amino]-6-demethyl-6-deoxytetracycline], the MIC in assay [1] is 32 µg/mL (≈ 54.9 µM); against E. coli UBMS 89-1 (tetM) it was greater than 32 µg/mL; in assay [2], 4 µg/mL (≈ 6.87 µM); in assay [3], 2 µg/mL (≈ 3.43 µM); in the assay with E. faecalis ATCC 29212, 8 µg/mL (≈ 13.7 µM); in assay [4], 0.5 µg/mL (≈ 0.858 µM). Also, the MIC in assay [5] was greater than 32 µg/mL; in assay [6] it was 8 µg/mL (≈ 13.7 µM); in assay [7], 2 µg/mL (≈ 3.43 µM); in assay [8], 8 µg/mL (≈ 13.7 µM); in assay [9], greater than 32 µg/mL; in the assay with E. faecalis 12201 it was 8 µg/mL (≈ 13.7 µM). Besides, the MIC was 32 µg/mL (≈ 54.9 µM) in assay [10]; 32 µg/mL (≈ 54.9 µM) in the assay with E. coli ATCC 25922; 32 µg/mL (≈ 54.9 µM) in assay [11]; greater than 32 µg/mL against E. coli UBMS 88-1 (tetB); 8 µg/mL (≈ 13.7 µM) in assay [12]; 4 µg/mL (≈ 6.87 µM) in assay [13].
With “[7S-(7α,10aα) ]-C(9-(Aminocarbonyl)-7-(dimethylamino)-5,5a,6,6a,7,10,10a,12-octahydro-1,8,10a,11-tetrahydroxy-10,12-dioxo-2-naphthacenyl]amino]oxoacetic acid ethyl ester”, the MIC in [1] was 32 µg/mL; against E. coli UBMS 89-1 (tetM), greater than 32 µg/mL; in assay [2], 32 µg/mL; in assay [3], 1 µg/mL; against E. faecalis ATCC 29212, 32 µg/mL; in [4], 0.25 µg/mL. The MIC in assay [5] was greater than 32 µg/mL; in assay [6], 2 µg/mL; in assay [7], 2 µg/mL; in assay [8], 32 µg/mL; in assay [9] it was greater than 32 µg/mL; against E. faecalis 12201, 32 µg/mL. Further, the MIC was 8 µg/mL in [10]; 32 µg/mL with E. coli ATCC 25922; greater than 32 µg/mL in [11]; greater than 32 µg/mL in the assay with E. coli UBMS 88-1 (tetB); 4 µg/mL in assay [12]; greater than 32 µg/mL in assay [13].
